Data reported in patent US20230088214A1, “GLYCOLATE OXIDASE INHIBITORS FOR THE TREATMENT OF DISEASE” (BIOMARIN PHARMACEUTICAL INC., priority 2019, published 2023).

Columns and labels:
[1] = target: T1, GO (Homo sapiens, UniProt Q9UJM8); assay: GO Cellular Assay: CHO-Agt Cells Assay (Assay 3); assay type: cell-based, Chinese hamster; parameters: host or cells: CHO cells (A.T.C.C. CCl-61) and engineered CHO-Agt cells (from Fargue/Danpure); details: 100 uM glycolic acid, glyoxylate by LC-MS at 2 hours, read-out: Range of IC50 values calculated from the cellular assays (Assay 3)
T1 sequence (Q9UJM8 1-370): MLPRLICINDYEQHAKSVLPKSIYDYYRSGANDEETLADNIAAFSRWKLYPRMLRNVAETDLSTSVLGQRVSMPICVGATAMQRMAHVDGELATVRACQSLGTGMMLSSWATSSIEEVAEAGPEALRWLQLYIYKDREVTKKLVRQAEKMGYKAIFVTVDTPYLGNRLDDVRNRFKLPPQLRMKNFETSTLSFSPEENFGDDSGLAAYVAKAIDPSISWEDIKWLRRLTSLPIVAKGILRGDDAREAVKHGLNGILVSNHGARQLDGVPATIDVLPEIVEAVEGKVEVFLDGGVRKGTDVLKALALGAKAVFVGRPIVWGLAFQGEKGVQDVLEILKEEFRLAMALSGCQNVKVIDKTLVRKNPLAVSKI
Method: Assay 3: GO Cellular Assay: CHO-Agt Cells Assay
CHO cells (A.T.C.C. number CCl-61) and engineered CHO-Agt cells (provided by Dr. Sonia Fargue and Dr. Christopher J. Danpure, Biochem. J. (2006) 394, 409-416) were used as a screening cellular assay for primary compounds. The cells were seeded in 20,000 cell/well in 96 well plate and cultured at 37-C under O2/CO2 (19:1) in Ham's F12 medium (Invitrogen) supplemented with fetal calf serum (10%, v/v), L-glutamine (2 mM), penicillin (100 units/ml) and streptomycin (100 pug/ml). After overnight culture, the cells were treated with various concentrations of inhibitors in the presence of 100 uM glycolic acid in HEPES buffer, pH7.0 (Sigma-Aldrich, Cat #124737). Culture medium was harvested at 2 hours after treatment for glyoxylate analysis and cell viability was measured by Cell Titer-Glo (Fisher Scientific, Cat #. PR-G7570).
The glyoxylate was quantified using LC-MS method. An aliquot of 120 μL medium was removed from each well and protein precipitated by adding 240 μL IS (100 ng/ml 13C2-glyoxylic acid, Sigma-Aldrich, Cat #G755002). The mixture was vortex-mixed well and centrifuged at 3900 rpm for 15 min, 4° C. 100 μL supernatant was then mixed with 10 μL formic acid and 100 μL 400 μM DNPH (2,4-dinitrophenylhydrazine) (Shanghai Runjie Huaxue Shiji Ltd., Cat #A0000436) and the mixture was shaken for 30 minutes. A 3 μL mixture of reaction mixture was injected for LC-MS/MS analysis. (Behnam J T, Williams E L, Brink S, Rumsby G, Danpure C J., “Reconstruction of human hepatocyte glyoxylate metabolic pathways in stably transformed Chinese-hamster ovary cells”, Biochem J. 2006 Mar. 1; 394 (Pt 2):409-16.)

[2] = target: T2, GO (Mus musculus, UniProt Q9WU19); assay: GO Cellular Assay: Primary Hepatocyte Assay (Assay 2); assay type: cell-based; details: primary mouse hepatocytes, 5 mM glycolate, oxalate at 72 hours; read-out: Range of IC50 values calculated from the cellular assays (Assay 2)
T2 construct: endogenous in cells; host or cells: primary hepatocytes from male C56BL/6 (so in the source) mouse liver
T2 sequence (Q9WU19 1-370): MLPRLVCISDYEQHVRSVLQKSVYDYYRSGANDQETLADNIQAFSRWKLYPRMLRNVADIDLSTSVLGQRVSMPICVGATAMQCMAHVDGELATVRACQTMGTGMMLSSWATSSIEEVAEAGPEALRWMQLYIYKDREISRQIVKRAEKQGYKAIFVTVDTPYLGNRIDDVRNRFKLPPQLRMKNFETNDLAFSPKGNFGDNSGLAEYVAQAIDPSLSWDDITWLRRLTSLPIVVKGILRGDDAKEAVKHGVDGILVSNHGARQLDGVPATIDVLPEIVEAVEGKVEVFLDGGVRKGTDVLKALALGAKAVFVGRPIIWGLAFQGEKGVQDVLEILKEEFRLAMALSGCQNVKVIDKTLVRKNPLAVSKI
Method: Assay 2: GO Cellular Assay: Primary Hepatocyte Assay
Primary hepatocytes were used for a GO cellular assay as previously described (Martin-Higueras et al., Mol Ther. 24(4): 719-725 (2016)). Hepatocytes were isolated using an in situ collagenase perfusion method from male C56BL/6 mice liver. The freshly isolated hepatocytes were cultured in six well plates with Williams E medium supplemented with 5% fetal bovine serum, 2 mM 1-glutamine, 100 U/ml penicillin, 100 μg/ml streptomycin, 2.2 mUI/ml insulin and 0.3 μg/ml hydrocortisone. After 5 hours, the medium was changed to Williams E complete medium (Biochrom, Cambridge, UK) without serum and cells were treated with various concentrations of inhibitors in the presence of 5 mM glycolate. Culture medium was harvested at 72 hours after treatment, and the oxalate was quantified by using an oxalate oxidase assay kit (Trinity Biotech, Co Wicklow, Ireland) following manufacturer's instructions. The oxalate level was also confirmed by LC-MS method. The IC50 value for each measured compound was generated from sigmoidal dose-response (variable slope) curves with GraphPad Prism software (GraphPad Software, Inc., San Diego, Calif.) using the percent inhibition of GO activity relative to DMSO control.

[3] = target: T1, GO; assay: GO Enzymatic Assay (Assay 1); assay type: biochemical; parameters: purchased Novus Biologicals NBP1-72412; details: Table 4; class symbols without asterisk, GO Enzymatic Assay (Assay 1); read-out: Range
Method: Assay 1: GO Enzymatic Assay
GO was incubated with its substrate, glycolate, in 50 mM potassium phosphate buffer, pH 7. […] The enzyme was optimized and the kinetics was determined.
Compound inhibition was determined by adding various concentrations of inhibitors in the GO enzyme assay. The IC50 value for each measured compound was generated from sigmoidal dose-response (variable slope) curves with GraphPad Prism software (GraphPad Software, Inc., San Diego, Calif.) using the percent inhibition of GO activity relative to DMSO control.

| Structure (SMILES) | IC50 [1] [nM] | IC50 [2] [nM] | IC50 [3] [nM] |
| --- | --- | --- | --- |
| CCOC(=O)c1[nH]nnc1Sc1nc(-c2ccc(Cl)c(Cl)c2)cs1 [Compound 1, ethyl 4-((4-(3,4-dichlorophenyl)thiazol-2-yl)thio)-1H-1,2,3-triazole-5-carboxylate] | > 10000 |  |  |
| O=C(OC1CC1)c1[nH]nnc1Oc1ccc2cc(Br)ccc2c1 [Compound 110, cyclopropyl 4-((6-bromonaphthalen-2-yl)oxy)-1H-1,2,3-triazole-5-carboxylate] | 1000 to 5000 |  |  |
| CC(C)OC(=O)OCOC(=O)c1[nH]nnc1O[C@H]1CC[C@H](c2ccc(OC(F)(F)F)cc2)CC1 [Compound 302, ((isopropoxycarbonyl)oxy)methyl 4-(((trans)-4-(4-(trifluoromethoxy)phenyl)cyclohexyl)oxy)-1H-1,2,3-triazole-5-carboxylate] | < 1000 |  |  |
| CCN(CC)C(=O)OCOC(=O)c1[nH]nnc1O[C@H]1CC[C@H](c2ccc(OC(F)(F)F)cc2)CC1 [Compound 370, ((diethylcarbamoyl)oxy)methyl 4-(((trans)-4-(4-(trifluoromethoxy)phenyl)cyclohexyl)oxy)-1H-1,2,3-triazole-5-carboxylate] |  | < 1000 |  |
| CC(C)C(=O)OCCOC(=O)c1[nH]nnc1O[C@H]1CC[C@H](c2ccc(OC(F)(F)F)cc2)CC1 [Compound 371, 2-(isobutyryloxy)ethyl 4-(((trans)-4-(4-(trifluoromethoxy)phenyl)cyclohexyl)oxy)-1H-1,2,3-triazole-5-carboxylate] |  | < 1000 |  |
| O=C(O)c1[nH]nnc1O[C@H]1CC[C@H](c2ccc(N3CCCCC3)c(Cl)c2)CC1 [Compound 441, 4-(((trans)-4-(3-chloro-4-(piperidin-1-yl)phenyl)cyclohexyl)oxy)-1H-1,2,3-triazole-5-carboxylic acid 2,2,2-trifluoroacetate] |  |  | < 100 |
| O=C(O)c1[nH]nnc1Oc1ccc(Cl)c(OC2CC2)c1 [Compound 445, 4-(4-chloro-3-cyclopropoxyphenoxy)-1H-1,2,3-triazole-5-carboxylic acid] |  |  | < 100 |
| OCc1[nH]nnc1Oc1ccc(-c2ccc(OC(F)(F)F)cc2)cc1 [Compound 487, (4-((4′-(trifluoromethoxy)-[1,1′-biphenyl]-4-yl)oxy)-1H-1,2,3-triazol-5-yl)methanol] | 1000 to 5000 | 1000 to 5000 |  |
| OCc1[nH]nnc1O[C@H]1CC[C@H](c2ccc(OC(F)(F)F)cc2)CC1 [Compound 488, (4-(((trans)-4-(4-(trifluoromethoxy)phenyl)cyclohexyl)oxy)-1H-1,2,3-triazol-5-yl)methanol] | 1000 to 5000 | < 1000 |  |
| OCc1[nH]nnc1S[C@H]1CC[C@@H](c2ccc(OC(F)(F)F)cc2)CC1 [Compound 489, (4-(((cis)-4-(4-(trifluoromethoxy)phenyl)cyclohexyl)thio)-1H-1,2,3-triazol-5-yl)methanol] | 1000 to 5000 |  |  |
| O=Cc1[nH]nnc1O[C@H]1CC[C@H](c2ccc(OC(F)(F)F)cc2)CC1 [Compound 490, 4-(((trans)-4-(4-(trifluoromethoxy)phenyl)cyclohexyl)oxy)-1H-1,2,3-triazole-5-carbaldehyde] | < 1000 | < 1000 |  |
| O=Cc1[nH]nnc1Oc1ccc(-c2ccc(OC(F)(F)F)cc2)cc1 [Compound 491, 4-((4′-(trifluoromethoxy)-[1,1′-biphenyl]-4-yl)oxy)-1H-1,2,3-triazole-5-carbaldehyde] | < 1000 | < 1000 |  |
| OCc1[nH]nnc1Sc1ccc(-c2ccc(N3CCCCC3)cc2)cc1 [Compound 492, (4-((4′-(piperidin-1-yl)-[1,1′-biphenyl]-4-yl)thio)-1H-1,2,3-triazol-5-yl)methanol] | > 10000 | < 1000 |  |
| OCc1[nH]nnc1Oc1ccc(-c2ccc(Cl)c(Cl)c2)cc1 [Compound 493-1, (4-((3′,4′-dichloro-[1,1′-biphenyl]-4-yl)oxy)-1H-1,2,3-triazol-5-yl)methanol] | 1000 to 5000 | < 1000 |  |

Next, values leading:

| IC50 [1] [nM] | IC50 [2] [nM] | IC50 [3] [nM] | Structure (SMILES) |
| --- | --- | --- | --- |
| 1000 to 5000 |  |  | OCc1[nH]nnc1Oc1ccc(-c2ccc(Cl)cc2)cc1 [Compound 493-2, (4-((4′-chloro-[1,1′-biphenyl]-4-yl)oxy)-1H-1,2,3-triazol-5-yl)methanol] |
| 5000 to 10000 |  |  | OCc1[nH]nnc1OC1CCN(c2cc(Cl)cc(Cl)c2)CC1 [Compound 494, (4-((1-(3,5-dichlorophenyl)piperidin-4-yl)oxy)-1H-1,2,3-triazol-5-yl)methanol] |
| > 10000 |  |  | OCc1[nH]nnc1SC1CCN(c2cc(Cl)cc(Cl)c2)CC1 [Compound 495, (4-((1-(3,5-dichlorophenyl)piperidin-4-yl)thio)-1H-1,2,3-triazol-5-yl)methanol] |
| < 1000 | < 1000 |  | OCc1nn[nH]c1Oc1ccc(-c2ccc(N3CCCCC3)cc2)cc1 [Compound 496, (4-((4′-(piperidin-1-yl)-[1,1′-biphenyl]-4-yl)oxy)-1H-1,2,3-triazol-5-yl)methanol] |
| > 10000 |  |  | OCc1[nH]nnc1Sc1ccc(-c2ccc(OC(F)(F)F)cc2)cc1 [Compound 497, (4-((4′-(trifluoromethoxy)-[1,1′-biphenyl]-4-yl)thio)-1H-1,2,3-triazol-5-yl)methanol] |
|  |  | < 100 | O=C(O)c1[nH]nnc1COC1CCN(c2cc(Cl)cc(Cl)c2)CC1 [Example 477, 4-(((1-(3,5-dichlorophenyl)piperidin-4-yl)oxy)methyl)-1H-1,2,3-triazole-5-carboxylic acid] |
|  |  | 100 to 1000 | O=C(O)c1[nH]nnc1COC1CCN(c2cc(Cl)ccc2Cl)CC1 [Example 481, 4-(((1-(2,5-dichlorophenyl)piperidin-4-yl)oxy)methyl)-1H-1,2,3-triazole-5-carboxylic acid] |
